Where two headings read alike, the source gives them in different places.
Legend:
[1] = test system: 3T3 cell line genetically engineered to express human PDGF-R; assay: PDGF-induced BrdU incorporation assay; type: cell-based; settings: 3T3 cells expressing human PDGF-R, read-out: PDGF-Induced BrdU Incorp. IC50
Protocol: (1) PDGF: human PDGF B/B; 1276-956, Boehringer Mannheim, Germany
(8) 3T3 cell line genetically engineered to express human PDGF-R.
1. Cells were seeded at 8000 cells/well in DMEM, 10% CS, 2 mM Gln in a 96 well plate. Cells were incubated overnight at 37° C. in 5% CO2.
2. After 24 hours, the cells were washed with PBS, and then were serum starved in serum free medium (0% CS DMEM with 0.1% BSA) for 24 hours.
3. On day 3, ligand (PDGF=3.8 nM, prepared in DMEM with 0.1% BSA) and test compounds were added to the cells simultaneously. The negative control wells received serum free DMEM with 0.1% BSA only; the positive control cells received the ligand (PDGF) but no test compound. Test compounds were prepared in serum free DMEM with ligand in a 96 well plate, and serially diluted for 7 test concentrations.
4. After 20 hours of ligand activation, diluted BrdU labeling reagent (1:100 in DMEM, 0.1% BSA) was added and the cells were incubated with BrdU (final concentration=10 μM) for 1.5 hours.
5. After incubation with labeling reagent, the medium was removed by decanting and tapping the inverted plate on a paper towel. FixDenat solution was added (50 μL/well) and the plates were incubated at room temperature for 45 minutes on a plate shaker.
6. The FixDenat solution was thoroughly removed by decanting and tapping the inverted plate on a paper towel. Milk was added (5% dehydrated milk in PBS, 200 μL/well) as a blocking solution and the plate was incubated for 30 minutes at room temperature on a plate shaker.
7. The blocking solution was removed by decanting and the wells were washed once with PBS. Anti-BrdU-POD solution (1:100 dilution in PBS, 1% BSA) was added (100 μL/well), and the plate was incubated for 90 minutes at room temperature on a plate shaker.
8. The antibody conjugate was thoroughly removed by decanting and rinsing the wells 5 times with PBS, and the space was dried by inverting and tapping on a paper towel.
9. TMB substrate solution was added (100 μL/well) and incubated for 20 minutes at room temperature on a plate shaker until color development was sufficient for photometric detection.
10. The absorbance of the samples were measured at 410 nm (in “dual wavelength” mode with a filter reading at 490 nm, as a reference wavelength) on a Dynatech ELISA plate reader.
The IC50 values were measured for several of the compounds of the invention. These values are depicted in Table 10.

HUV-EC-C cells; VEGF = assay: HUVEC-VEGF 3H-thymidine incorporation assay; type: cell-based, human
Protocol: The following protocol is used to measure a compound's activity against VEGF and aFGF, all of which are expressed by HUVEC cells.
1. […] After cells have detached from the flask, add an equal volume of assay medium and transfer to a 50 mL sterile centrifuge tube (Fisher Scientific; catalogue no. 05-539-6).
2. Wash the cells with about 35 mL assay medium in the 50 mL sterile centrifuge tube by adding the assay medium, centrifuge for 10 minutes at approximately 200×g, aspirate the supernatant, and resuspend with 35 mL D-PBS. Repeat the wash two more times with D-PBS, resuspend the cells in about 1 mL assay medium/15 cm^2 of tissue culture flask. Assay medium consists of F12K medium (Gibco BRL; catalogue no. 21127-014)+0.5% heat-inactivated fetal bovine serum. Count the cells with a Coulter Counter® (Coulter Electronics, Inc.) and add assay medium to the cells to obtain a concentration of 0.8-1.0×10^5 cells/mL.
3. Add cells to 96-well flat-bottom plates at 100 μL/well or 0.8-1.0×10^4 cells/well; incubate ˜24h at 37° C., 5% CO^2.
1. Make up two-fold drug titrations in separate 96-well plates, generally 50 μM on down to 0 μM. Use the same assay medium as mentioned in day 0, step 2 above. Titrations are made by adding […] of drug at 200 μM (4× the final well concentration) to the top well of a particular plate column. Since the stock drug concentration is usually 20 mM in DMSO, the 200 μM drug concentration contains 2% DMSO.
Therefore, diluent made up to 2% DMSO in assay medium (F12K+0.5% fetal bovine serum) is used as diluent for the drug titrations in order to dilute the drug but keep the DMSO concentration constant. Add this diluent to the remaining wells in the column at 60 μL/well. Take 60 μL from the 120 μL of 200 μM drug dilution in the top well of the column and mix with the 60 μL in the second well of the column. Take 60 μL from this well and mix with the 60 μL in the third well of the column, and so on until two-fold titrations are completed. When the next-to-the-last well is mixed, take 60 μL of the 120 μL in this well and discard it. Leave the last well with 60 μL of DMSO/media diluent as a non-drug-containing control. Make 9 columns of titrated drug, enough for triplicate wells each for 1) VEGF (obtained from Pepro Tech Inc., catalogue no. 100-200, 2) endothelial cell growth factor (ECGF) (also known as acidic fibroblast growth factor, or aFGF) (obtained from Boehringer Mannheim Biochemica, catalogue no. 1439 600); or, 3) human PDGF B/B (1276-956, Boehringer Mannheim, Germany) and assay media control. ECGF comes as a preparation with sodium heparin.
2. Transfer 50 μL/well of the drug dilutions to the 96-well assay plates containing the 0.8-1.0×10^4 cells/100 μL/well of the HUV-EC-C cells from day 0. and incubate ˜2 h at 37° C., 5% CO2.
3. […] As with the drugs, the growth factor concentrations are 4× the desired final concentration. Use the assay media from day 0 step 2 to make the concentrations of growth factors. Incubate approximately 24 hours at 37° C., 5% CO2. Each well will have 50 μL drug dilution, 50 μL growth factor or media, and 100 μL cells, =200 μL/well total. Thus the 4× concentrations of drugs and growth factors become 1× once everything has been added to the wells.
1. Add ^3H-thymidine (Amersham; catalogue no. TRK-686) at 1 μCi/well (10 μL/well Of 100 μCi/mi solution made up in RPMI media +10% heat-inactivated fetal bovine serum) and incubate μ24 h at 37° C., 5% CO2. RPMI was obtained from Gibco BRL, catalogue no. 11875-051.
1. Freeze plates overnight at […]
1. Thaw plates and harvest with a 96-well plate harvester (Tomtec Harvester 96®) onto filter mats (Wallac; catalogue no. 1205-401); read counts on a Wallac Betaplate™ liquid scintillation counter.
The IC50 values were measured for several of the compounds of the invention.

| SMILES | IC50 ([1]; NIH3T3, PDGF 3.8 nM) | IC50 (HUV-EC-C cells; VEGF; Homo sapiens) | IC50 ([1]; PDGF […]) | IC50 (HUV-EC-C cells; VEGF) |
| --- | --- | --- | --- | --- |
| O=C(O)CCc1c(C=C2C(=O)Nc3ccccc32)[nH]c2c1CCCC2 [IN-001, 3-[2-(2-Oxo-1,2-dihydro-indol-3-ylidenemethyl)-4,5,6,7-tetrahydro-1H-indol-3-yl]-propionic acid] | 2900 nM | 1.9 nM | – | – |
| O=C(O)CCc1c(C=C2C(=O)Nc3ccc(Cl)cc32)[nH]c2c1CCCC2 [IN-002, 3-[2-(5-Chloro-2-oxo-1,2-dihydro-indol-3-ylidenemethyl)-4,5.6,7-tetrahydro-1H-indol-3-yl]-propionic acid] | – | – | 1100 nM | 0.04 nM |
| O=C(O)CCc1c(C=C2C(=O)Nc3ccc(Br)cc32)[nH]c2c1CCCC2 [IN-003, 3-[2-(5-Bromo-2-oxo-1,2-dihydro-indol-3-ylidenemethyl)-4,5,6,7-tetrahydro-1H-indol-3-yl]-propionic acid] | 1400 nM | 0.3 nM | – | – |
| Cc1cccc2c1C(=Cc1[nH]c3c(c1CCC(=O)O)CCCC3)C(=O)N2 [IN-004, 3-[2-(4-Methyl-2-oxo-1,2-dihydro-indol-3-ylidenemethyl)-4,5,6,7-tetrahydro-1H-indol-3-yl]-propionic acid] | 13500 nM | 0.94 nM | – | – |
| Cc1ccc2c(c1)C(=Cc1[nH]c3c(c1CCC(=O)O)CCCC3)C(=O)N2 [IN-005, 3-[2-(5-Methyl-2-oxo-1,2-dihydro-indol-3-ylidenemethyl)-4,5,6,7-tetrahydro-1H-indol-3-yl]-propionic acid] | 14200 nM | 1 nM | – | – |
| COc1ccc2c(c1)NC(=O)C2=Cc1[nH]c2c(c1CCC(=O)O)CCCC2 [IN-007, 3-[2-(6-Methoxy-2-oxo-1,2-dihydro-indol-3-ylidenemethyl)-4,5,6,7-tetrahydro-1H-indol-3-yl]-propionic acid] | 3000 nM | 20 nM | – | – |
| CN(C)C(=O)CCc1c(C=C2C(=O)Nc3ccccc32)[nH]c2c1CCCC2 [IN-008, N,N-Dimethyl-3-[2-(2-oxo-1,2-dihydro-indol-3-ylidenemethyl)-4,5,6,7-tetrahydro-1H-indol-3-yl]-propionamide] | 4900 nM | < 3 nM | – | – |
| CN(C)CCCc1c(C=C2C(=O)Nc3ccccc32)[nH]c2c1CCCC2 [IN-009, 3-[3-(3-Dimethylamino-propyl)-4,5,6,7-tetrahydro-1H-indol-2-ylmethylene]-1,3-dihydro-indol-2-one] | 4200 nM | 290 nM | – | – |
| NC(=O)CCc1c(C=C2C(=O)Nc3ccccc32)[nH]c2c1CCCC2 [IN-010, 3-[2-(2-Oxo-1,2-dihydro-indol-3-ylidenemethyl)-4,5,6,7-tetrahydro-1H-indol-3-yl]-propionamide] | 3500 nM | < 30 nM | – | – |
| O=C1Nc2ccccc2C1=Cc1[nH]c2c(c1CCC(=O)N1CCOCC1)CCCC2 [IN-011, 3-[3-(3-Morpholin-4-yl-3-oxo-propyl)-4,5 6,7-tetrahydro-1H-indol-2-ylmethylene]-1,3-dihydro-indol-2-one] | 8600 nM | 220 nM | – | – |
| CNC(=O)CCc1c(C=C2C(=O)Nc3ccccc32)[nH]c2c1CCCC2 [IN-012, N-Methyl-3-[2-(2-oxo-1,2-dihydro-indol-3-ylidenemethyl)-4,5,6,7-tetrahydro-1H-indol-3-yl]-propionamide] | 3900 nM | < 30 nM | – | – |
| O=C(CCc1c(C=C2C(=O)Nc3ccccc32)[nH]c2c1CCCC2)NCCN1CCOCC1 [IN-013, N-(2-Morpholin-4-yl-ethyl)-3-[2-(2-oxo-1,2-dihydro-indol-3-ylidenemethyl)-4,5,6,7-tetrahydro-1H-indol-3-yl]-propionamide] | 5200 nM | < 30 nM | – | – |
| Cc1c[nH]c(C=C2C(=O)Nc3ccccc32)c1CCC(=O)O [IN-026, 3-[4-Methyl-2-(2-oxo-1,2-dihydro-indol-3-ylidenemethyl)-1H-pyrrol-3-yl]-propionic acid] | 20000 nM | – | – | – |
| Cc1c[nH]c(C=C2C(=O)Nc3ccc(Cl)cc32)c1CCC(=O)O [IN-027, 3-[2-(5-Chloro-2-oxo-1,2-dihydro-indol-3-ylidenemethyl)-4-methyl-1H-pyrrol-3-yl]-propionic acid] | – | < 70 nM | – | – |
| COc1ccc2c(c1)NC(=O)C2=Cc1[nH]cc(C)c1CCC(=O)O [IN-028, 3-[2-(6-Methoxy-2-oxo-1,2-dihydro-indol-3-ylidenemethyl)-4-methyl-1H-pyrrol-3-yl]-propionic acid] | 8700 nM | 620 nM | – | – |
| Cc1c[nH]c(C=C2C(=O)Nc3cccc(C)c32)c1CCC(=O)O [IN-029, 3-[2-(4-Methyl-2-oxo-1,2-dihydro-indol-3-ylidenemethyl)-4-methyl-1H-pyrrol-3-yl]-propionic acid] | 24800 nM | < 70 nM | – | – |
| Cc1c[nH]c(C=C2C(=O)Nc3cc(Cl)ccc32)c1CCC(=O)O [IN-030, 3-[2-(6-Chloro-2-oxo-1,2-dihydro-indol-3-ylidenemethyl)-4-methyl-1H-pyrrol-3-yl]-propionic acid] | 7900 nM | 16 nM | – | – |
| Cc1c[nH]c(C=C2C(=O)Nc3ccc(Br)cc32)c1CCC(=O)O [IN-031, 3-[2-(5-Bromo-2-oxo-1,2-dihydro-indol-3-ylidenemethyl)-4-methyl-1H-pyrrol-3-yl]-propionic acid] | 8500 nM | 40 nM | – | – |

Source: patent US20040067531A1, “Methods of modulating protein tyrosine kinase function with substituted indolinone compounds” (SUGEN, INC., priority 1997, published 2004)
